From patent US9204653B2, “5-fluoro pyrimidine derivatives” (DOW AGROSCIENCES LLC, priority 2008, dated 2015)
Like-named read-outs stand apart in the source and are kept apart here.

Test system: Mycosphaerella graminicola; Anamorph: Septoria tritici; Bayer Code SEPTTR
Assay: Leaf blotch of wheat, foliar fungicide treatment, one day protectant (1DP) or three day curative (3DC)
Assay type: in vivo, Septoria tritici on wheat plants (variety Yuma)
Conditions: Zymoseptoria tritici, rating of percent disease control
[1] = 24 h, one day protectant, read-out: SETTTR 1DP 25 ppm
[2] = 24 h, one day protectant, read-out: SEPTTR 1DP 100 ppm
[3] = 72 h, three day curative, read-out: SEPTTR 3DC 25 ppm
[4] = 72 h, three day curative, read-out: SEPTTR 3DC 100 ppm
[5] = 24 h, one day protectant (1DP), read-out: SETTTR 1DP 25 ppm
[6] = 24 h, one day protectant (1DP), read-out: SEPTTR 1DP 100 ppm
[7] = 72 h, three day curative (3DC), read-out: SEPTTR 3DC 25 ppm
[8] = 72 h, three day curative (3DC), read-out: SEPTTR 3DC 100 ppm

Row | Compound | pest or weed control at 25 ppm [1] [%] | pest or weed control at 100 ppm [2] [%] | pest or weed control at 25 ppm [3] [%] | pest or weed control at 100 ppm [4] [%] | pest or weed control at 25 ppm [5] [%] | pest or weed control at 100 ppm [6] [%] | pest or weed control at 25 ppm [7] [%] | pest or weed control at 100 ppm [8] [%]
1 | COc1cccc(COc2ncc(F)c(/N=C/N(C)C)n2)c1 [Compound 692] | 76 to 100 | 76 to 100 | 76 to 100 | 76 to 100 |  |  |  | 
2 | Nc1nc(OCc2cc(F)c(F)c(F)c2F)ncc1F [Compound 693] | 76 to 100 | 76 to 100 | 76 to 100 | 76 to 100 |  |  |  | 
3 | CCCCCCOc1ncc(F)c(NC(C)=O)n1 [Compound 695] | 0 to 25 | 76 to 100 | 0 to 25 | 26 to 50 |  |  |  | 
4 | CC(C)(C)c1ccc(COc2ncc(F)c(N)n2)cc1 [Compound 696] | 76 to 100 | 76 to 100 | 51 to 75 | 76 to 100 |  |  |  | 
5 | O=C(Nc1ccsc1)Nc1nc(OCCc2ccc(Cl)cc2)ncc1F [Compound 697] | 0 to 25 | 0 to 25 | 26 to 50 | 26 to 50 |  |  |  | 
6 | COc1ccc(COc2ncc(F)c(N)n2)c(Cl)c1OC [Compound 698] | 76 to 100 | 76 to 100 | 76 to 100 | 76 to 100 |  |  |  | 
7 | Nc1nc(OCc2cnccn2)ncc1F [Compound 699] | 76 to 100 | 76 to 100 | 51 to 75 | 76 to 100 |  |  |  | 
8 | Fc1ccc(COc2ncc(F)c(N/N=C/c3ccccc3Cl)n2)cc1 [Compound 700] | 0 to 25 | 51 to 75 | 26 to 50 | 76 to 100 |  |  |  | 
9 | Cc1ccc(COc2ncc(F)c(NNC3CCCCC3)n2)cc1 [Compound 701] | 0 to 25 | 76 to 100 | 0 to 25 | 76 to 100 |  |  |  | 
10 | CC[Si](CC)(CC)Nc1nc(OCc2ccc(OC)c(F)c2)ncc1F [Compound 702] | 76 to 100 | 76 to 100 | 76 to 100 | 76 to 100 |  |  |  | 
11 | O=C(Nc1nc(OCc2ccc(F)cc2)ncc1F)c1cccc(CBr)c1 [Compound 703] | 0 to 25 | 26 to 50 | 0 to 25 | 0 to 25 |  |  |  | 
12 | COc1cccc(COc2ncc(F)c(/N=C/N3CCOCC3)n2)c1 [Compound 704] | 76 to 100 | 76 to 100 | 76 to 100 | 76 to 100 |  |  |  | 
13 | Nc1nc(OCc2ccc(C(F)(F)F)cc2)ncc1F [Compound 705] | 76 to 100 | 76 to 100 | 51 to 75 | 76 to 100 |  |  |  | 
14 | CCCNC(=S)Nc1nc(OCc2cccc(C#N)c2)ncc1F [Compound 706] | 0 to 25 | 76 to 100 | 0 to 25 | 51 to 75 |  |  |  | 
15 | CCCCOc1cccc(COc2ncc(F)c(N)n2)c1 [Compound 708] | 76 to 100 | 76 to 100 | 76 to 100 | 76 to 100 |  |  |  | 
16 | COc1ccc(COc2ncc(F)c(NCOCc3ccccc3)n2)cc1F [Compound 709] | 0 to 25 | 76 to 100 | 0 to 25 | 51 to 75 |  |  |  | 
17 | Fc1ccccc1NC(=S)Nc1nc(OCc2cccs2)ncc1F [Compound 711] | 51 to 75 | 76 to 100 | 26 to 50 | 76 to 100 |  |  |  | 
18 | Nc1nc(OCc2ccccc2F)ncc1F [Compound 713] | 76 to 100 | 76 to 100 | 51 to 75 | 76 to 100 |  |  |  | 
19 | CC(=O)Nc1nc(OC(C)c2ccc(F)cc2)ncc1F (centres unmarked) [Compound 714] | 76 to 100 | 76 to 100 | 76 to 100 | 76 to 100 |  |  |  | 
20 | Nc1nc(Oc2cccc([N+](=O)[O-])c2)ncc1F [Compound 715] | 26 to 50 | 51 to 75 | 0 to 25 | 0 to 25 |  |  |  | 
21 | Cc1cccc(Oc2ccc(COc3ncc(F)c(N)n3)cc2)c1 [Compound 716] | 76 to 100 | 76 to 100 | 76 to 100 | 76 to 100 |  |  |  | 
22 | Cc1ccc(CNc2nc(OCc3ccc(C)cc3)ncc2F)cc1 [Compound 717] | 51 to 75 | 76 to 100 | 76 to 100 | 76 to 100 |  |  |  | 
23 | C/C(=N\Nc1nc(OCc2ccc(C)cc2)ncc1F)c1ccc(C)o1 [Compound 718] | 26 to 50 | 76 to 100 | 26 to 50 | 26 to 50 |  |  |  | 

Row | Compound | pest or weed control at 25 ppm [1] [%] | pest or weed control at 100 ppm [2] [%] | pest or weed control at 25 ppm [3] [%] | pest or weed control at 100 ppm [4] [%] | pest or weed control at 25 ppm [5] [%] | pest or weed control at 100 ppm [6] [%] | pest or weed control at 25 ppm [7] [%] | pest or weed control at 100 ppm [8] [%]
24 | Nc1nc(OCC2CC2)ncc1F [Compound 722] | 0 to 25 | 0 to 25 | 0 to 25 | 26 to 50 |  |  |  | 
25 | CCCNC(=O)Nc1nc(OCc2ccccc2OC)ncc1F [Compound 724] | 0 to 25 | 26 to 50 | 0 to 25 | 0 to 25 |  |  |  | 
26 | Nc1nc(OCc2ccc(I)cc2)ncc1F [Compound 725] | 76 to 100 | 76 to 100 | 76 to 100 | 76 to 100 |  |  |  | 
27 | COc1ccc(COc2ncc(F)c(/N=C/N(C)C)n2)cc1 [Compound 726] | 76 to 100 | 76 to 100 | 76 to 100 | 76 to 100 |  |  |  | 
28 | C/C(=N\c1nc(OCc2ccc(F)cc2)ncc1F)N(C)C [Compound 727] | 76 to 100 | 76 to 100 | 76 to 100 | 76 to 100 |  |  |  | 
29 | CC#CCOc1ncc(F)c(NC(=O)Nc2ccsc2)n1 [Compound 729] | 51 to 75 | 26 to 50 | 51 to 75 | 51 to 75 |  |  |  | 
30 | CC(C)CCOc1ncc(F)c(N)n1 [Compound 731] | 0 to 25 | 0 to 25 | 0 to 25 | 0 to 25 |  |  |  | 
31 | Cc1ccccc1COc1ncc(F)c(N)n1 [Compound 733] | 76 to 100 | 76 to 100 | 76 to 100 | 76 to 100 |  |  |  | 
32 | COc1ccc(Oc2ncc(F)c(NC(=O)Nc3ccsc3)n2)cc1 [Compound 737] |  |  |  |  | 0 to 25 | 0 to 25 | 0 to 25 | 0 to 25
33 | CCCCCC(CC)Oc1ncc(F)c(N)n1 (centres unmarked) [Compound 740] |  |  |  |  | 0 to 25 | 0 to 25 |  | 
34 | Nc1nc(OCc2cc(Cl)cc(C(F)(F)F)c2)ncc1F [Compound 743] |  |  |  |  | 76 to 100 | 76 to 100 | 76 to 100 | 76 to 100
35 | CC(C)/C(=N\c1nc(OCc2ccc(F)cc2)ncc1F)N(C)C [Compound 744] |  |  |  |  | 76 to 100 | 76 to 100 | 76 to 100 | 76 to 100
36 | CC#CCOc1ncc(F)c(NC(C)=O)n1 [Compound 745] |  |  |  |  | 76 to 100 | 76 to 100 | 76 to 100 | 76 to 100
37 | C#CCOc1ncc(F)c(N)n1 [Compound 746] |  |  |  |  | 0 to 25 | 0 to 25 | 0 to 25 | 76 to 100
38 | CC1CC1COc1ncc(F)c(N)n1 (centres unmarked) [Compound 747] |  |  |  |  | 0 to 25 | 76 to 100 | 51 to 75 | 76 to 100
39 | Nc1nc(OCCOc2ccccc2)ncc1F [Compound 748] |  |  |  |  | 0 to 25 | 0 to 25 |  | 
40 | CCOC(=O)Nc1nc(OC(C)c2ccc(F)cc2)ncc1F (centres unmarked) [Compound 749] |  |  |  |  | 76 to 100 | 76 to 100 | 76 to 100 | 76 to 100
41 | Fc1ccccc1CNc1nc(OCc2ccccc2)ncc1F [Compound 750] |  |  |  |  | 26 to 50 | 76 to 100 | 26 to 50 | 51 to 75
42 | CN1CCCC/C1=N\c1nc(OCc2ccn(C)n2)ncc1F [Compound 751] |  |  |  |  | 51 to 75 | 76 to 100 | 26 to 50 | 76 to 100
43 | CCOCCOc1cccc(COc2ncc(F)c(N)n2)c1 [Compound 752] |  |  |  |  | 76 to 100 | 76 to 100 | 76 to 100 | 76 to 100
44 | CCOCNc1nc(OCc2ccccc2)ncc1F [Compound 753] |  |  |  |  | 76 to 100 | 76 to 100 | 76 to 100 | 76 to 100
45 | COc1cccc(COc2ncc(F)c(NN3CCOCC3)n2)c1 [Compound 754] |  |  |  |  | 0 to 25 | 0 to 25 | 0 to 25 | 26 to 50
